In publication PMC6473556, “Targetable Mechanical Properties by Switching between Self‐Sorting and Co‐assembly with In Situ Formed Tripodal Ketoenamine Supramolecular Hydrogels” (Chemnanomat, 2018):

Columns and labels:
Format in all cases: physicochemical
[1] = Critical gel concentration, inverted vial method; conditions: 0.5 ml water
Procedure: 3.3 Setting gel using the ex situ prepared compound (gels R1 to R8 inclusively):
This procedure describes the method used in a typical setting of the hydrogel at 2 wt% using the previously prepared synthesised compound.
The gel ligand (0.1 g) was suspended in water, to this suspension sodium hydroxide was added (0.05 g, 1.25 mmol). Sonication and gentle heating was used to ensure the ligand had completely dissolved giving a solution with a pH of 9 – 10. To this solution glucono delta-lactone (GdL) (0.08 g, 0.45 mmol) was added and the solution was shaken until the GdL had […]
3.4 Setting gel R9 using the ex situ prepared compound:
This procedure describes the method used in a typical setting of the hydrogel R9 at 2 wt% using the previously prepared synthesised compound R9.
The synthesised compound R9 (0.1 g, 0.21 mmol) was suspended in water (5 ml), to this suspension sodium hydroxide was added (0.05 g, 1.25 mmol). Sonication and gentle heating was used to ensure the ligand had completely dissolved giving a solution with a pH of 9 – 10.
To this solution conc. Hydrochloric acid (0.4 ml) was rapidly added instantly producing a […]
3.5 Critical gel concentration (CGC):
Critical gel concentration was determined using the inverted vial method in 2 ml sample vials using 0.5 ml of water. This method can often give lower CGC values than are determined using a rheometer due to the low volume of solution and the high surface tension within the vials.

[2] = Rheometry of the gels (time, frequency and stress sweeps); conditions: gel at 40 mM gelator concentration, standard deviation in brackets; for Yield stress: rounded to nearest 10; for G′ / G′′: rounded to nearest 100
Procedure: Another observation is the difference in transparency between the gels (Figure 1). Gels R2 and R6 are noticeably more transparent than the other gels. This transparency is a result of gels R2 and R6 having narrower fibres and therefore scattering less light (Figure S59). […] The responses of the nine presented gels to mechanical stimulus were determined using rheometry (Table 1). Although differences in mechanical properties are apparent when comparing one gel to another the difference between the same gel prepared ex situ and in situ is negligible (see ESI). Once a constant value for G′ had been recording during the time sweep experiments, the gelatinous nature of the materials was confirmed using frequency sweep rheometry.
For all gels the G′ and G“ values remained constant over a frequency range of 0.1–100 Hz, with the value of G′ several times the value recorded for G” (Figure 3). To examine the gels’ non‐linear rheological behaviour stress sweep experiments were conducted. The defining point of the experiment is the yield stress, below which G′ remains essentially constant, but above which the gel begins to flow (see ESI).

[3] = Gelation on lowering the pH with glucono-delta-lactone; conditions: in situ reaction at high pH after addition of GdL

| SMILES | CGC (critical gel concentration) [1] [Wt%] | Yield stress [2] | G′ [2] | G′′ [2] | Gelation [3] |
| --- | --- | --- | --- | --- | --- |
| O=C1C(=CNc2ccc(C(=O)O)cc2)C(=O)C(=CNc2ccc(C(=O)O)cc2)C(=O)C1=CNc1ccc(C(=O)O)cc1 [R1] | 0.3 | 140(10) μNm | 9000(200) Pa | 2300(100) Pa | – |
| O=C1C(=CNc2ccc(Cl)c(C(=O)O)c2)C(=O)C(=CNc2ccc(Cl)c(C(=O)O)c2)C(=O)C1=CNc1ccc(Cl)c(C(=O)O)c1 [R2] | 0.2 | 80(20) μNm | 12700(100) Pa | 3300(200) Pa | – |
| COc1cc(NC=C2C(=O)C(=CNc3ccc(C(=O)O)c(OC)c3)C(=O)C(=CNc3ccc(C(=O)O)c(OC)c3)C2=O)ccc1C(=O)O [R3] | 0.5 | 140(20) μNm | 10200(300) Pa | 2100(100) Pa | – |
| O=C1C(=CNc2ccc(C(=O)O)cc2O)C(=O)C(=CNc2ccc(C(=O)O)cc2O)C(=O)C1=CNc1ccc(C(=O)O)cc1O [R4] | 0.4 | 40(10) μNm | 9300(200) Pa | 2100(200) Pa | – |
| O=C1C(=CNc2cc(C(=O)O)ccc2O)C(=O)C(=CNc2cc(C(=O)O)ccc2O)C(=O)C1=CNc1cc(C(=O)O)ccc1O [R5] | 0.4 | 80(20) μNm | 10800(200) Pa | 3100(400) Pa | – |
| O=C1C(=CNc2cc(C(=O)O)cc(C(F)(F)F)c2)C(=O)C(=CNc2cc(C(=O)O)cc(C(F)(F)F)c2)C(=O)C1=CNc1cc(C(=O)O)cc(C(F)(F)F)c1 [R6] | 0.1 | 250(30) μNm | 15400(300) Pa | 2600(200) Pa | – |
| COc1c(NC=C2C(=O)C(=CNc3cccc(C(=O)O)c3OC)C(=O)C(=CNc3cccc(C(=O)O)c3OC)C2=O)cccc1C(=O)O [R7] | 0.5 | 90(30) μNm | 8800(200) Pa | 2100(300) Pa | – |
| Cc1cc(NC=C2C(=O)C(=CNc3ccc(C(=O)O)c(C)c3)C(=O)C(=CNc3ccc(C(=O)O)c(C)c3)C2=O)ccc1C(=O)O [R8] | 0.5 | 70(20) μNm | 9600(100) Pa | 2500(200) Pa | – |
| O=C1C(=CNc2ccc(O)cc2)C(=O)C(=CNc2ccc(O)cc2)C(=O)C1=CNc1ccc(O)cc1 [R9] | 0.9 | 20(40) μNm | 1200(100) Pa | 300(300) Pa | – |
| O=C(O)CCCCCNC=C1C(=O)C(=CNCCCCCC(=O)O)C(=O)C(=CNCCCCCC(=O)O)C1=O [R10] | – | – | – | – | no gelation |
